Measurements as given in patent US9440969B2, “Compounds and methods for kinase modulation, and indications therefor” (PLEXXIKON INC., priority 2009, dated 2016).

How the values were obtained:
B-Raf = B-Raf (Homo sapiens, UniProt P15056); test: B-Raf kinase activity assay (AlphaScreen, biotin-MEK1 substrate); conditions: 100 μM ATP, 100 nM biotin-MEK1, 45 minutes at room temperature; read-out: Biochemical activity (IC50 μM) B-Raf
Summary of the method: (§1)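 AlphaScreen detection of phospho-MEK1 uses anti-phospho-MEK1/2 antibody and donor/acceptor beads, incubated 3 h. The kinase step runs 45 min at room temperature with 0.1 ng enzyme, 100 nM biotin-MEK1 and 100 μM ATP in 50 mM HEPES pH 7.0. IC50 is derived from eight compound concentrations.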

B-Raf V600E = B-Raf V600E (Homo sapiens, UniProt P15056, V600E); test: B-Raf V600E kinase activity assay (AlphaScreen, biotin-MEK1 substrate); conditions: 100 μM ATP, 100 nM biotin-MEK1, 45 minutes at room temperature, read-out: Biochemical activity (IC50 μM) V600E
Summary of the method: as §1

c-Raf-1 = c-Raf-1 (Homo sapiens, UniProt P04049); test: c-Raf-1 kinase activity assay (AlphaScreen, biotin-MEK1 substrate); conditions: 100 μM ATP, 100 nM biotin-MEK1, 45 minutes at room temperature; read-out: Biochemical activity (IC50 μM) c-Raf-1
Summary of the method: as §1

[1] = test system: A375 melanoma (B-Raf V600E mutation); test: A375 cell growth inhibition (ATPlite luminescence); format: cell-based; conditions: Homo sapiens, A-375, 72 h, A375 cells, incubated 3 days with compound
Experimental: Compounds are assessed in a variety of cell based assays. For example human cell lines with B-Raf V600E mutation (A375 melanoma, SKMEL3 melanoma, and COLO205 colon adenocarcinoma), as well as tumorigenic cell lines with wild-type B-RAF (SW620 colon adenocarcinoma) or with Ras mutations (SKMEL2 melanoma and IPC298 melanoma). Similar assays may be used to assess additional tumorigenic cell lines with Ras mutations, including, but not limited to, M202, M207, M243, M244, M296, S117, HCT116, HCT15, DLD1, MiaPaCa, A549, NCI-H23, NCI-H460, HOP62, MDA-MB231, Hs-578T, HL60, MOLT-4, and CCRF-CEM.
On day 1, cells are counted, then centrifuged in a conical tube for 5 minutes at 1000 rpm. The supernatant is removed and cells are re-suspended as follows: • SW620 (ATCC catalog #CCL-27): resuspend in Leibovitz's L-15 medium, 2 mM L-glutamine, 10% fetal bovine serum to 6×10^4 cells/mL. • A375 (ATCC catalog #CRL-1619): resuspend in Dulbecco's modified Eagle's medium, 4 mM L-glutamine, 4.5 g/L D-glucose, 10% fetal bovine serum to 6×10^4 cells/mL. • COLO205 (ATCC catalog #CCL-222): resuspend in RPMI 1640, 2 mM L-glutamine, 1.5 g/L sodium bicarbonate, 4.5 g/L D-glucose, 10 mM HEPES, 1.0 mM sodium pyruvate, 10% fetal bovine serum to 6×10^4 cells/mL. • SKMEL2 (ATCC catalog #HTB-68): resuspend in Minimum Eagle essential medium, 2 mM L-glutamine, 1.5 g/L sodium bicarbonate, 0.1 mM non-essential amino acids, 1.0 mM sodium pyruvate, 10% fetal bovine serum to 6×10^4 cells/mL. • SKMEL3 (ATCC catalog #HTB-69): resuspend in McCoy's 5A medium, 1.5 mM L-glutamine, 15% fetal bovine serum to 6×10^4 cells/mL. • IPC298 (DSMZ catalog #ACC 251): resuspend in RPMI 1640, 2 mM L-glutamine, 10% fetal bovine serum to 6×10^4 cells/mL.
The cells are plated, 50 μL in each well of a 96-well dish (Corning 3610) and incubated at 37° C. in 5% CO2 overnight, cells plated to a final concentration of cells as follows:
On day 2, compound at a maximum concentration of 5 mM is serially diluted 1:3 (e.g. 10 μL with 30 μL dimethyl sulfoxide) for a total of 8 point titration with DMSO as a control. A 1 μL aliquot of each dilution point and control is added to 249 μL growth media and 50 μL is added to a well containing cells, providing 10 μM compound at the maximum concentration point. The cells are incubated for 3 days at 37° C. in 5% CO2.
On day 5, ATPlite 1 step Luminescence Assay System (Perkin Elmer #6016739) is brought to room temperature along with the cell cultures. ATPlite is added 25 μL to each well, shake for 2 minutes, and the cells are incubated at room temperature for 10 minutes, then luminescence is read on Safire reader. The measured luminescence correlates directly with cell number, such that the reading as a function of compound concentration is used to determine the IC50 value.
It is understood that the results of these assays may vary as assay conditions are varied. Inhibition levels determined under the conditions described herein represent a relative activity for the compounds tested under the specific conditions employed. The cell based assays are likely to show variability due to the complexity of the system and the sensitivity thereof to any changes in the assay conditions. […] Results for compounds that are tested and show substantially no inhibition below the highest tested concentration are represented as “-” in the tables below. In some instances, the compounds were not tested in all of the assays, or assay results were not valid, as indicated by NA in the tables below.

[2] = test system: COLO205 colon adenocarcinoma (B-Raf V600E mutation); test: COLO205 cell growth inhibition (ATPlite luminescence); format: cell-based; conditions: Homo sapiens, COLO 205, 72 h, COLO205 cells, incubated 3 days with compound
Summary of the method: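 Cells seeded at 6×10^4 cells/mL in line-specific medium with 10% FBS, held overnight at 37°C, then given an 8-point 1:3 compound titration (top 10 μM final) for 3 days at 37°C, 5% CO2. ATP content read by ATPlite luminescence as a cell-number proxy; IC50 fitted from luminescence versus concentration.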

Sequence of B-Raf V600E (P15056 whole entry V600E): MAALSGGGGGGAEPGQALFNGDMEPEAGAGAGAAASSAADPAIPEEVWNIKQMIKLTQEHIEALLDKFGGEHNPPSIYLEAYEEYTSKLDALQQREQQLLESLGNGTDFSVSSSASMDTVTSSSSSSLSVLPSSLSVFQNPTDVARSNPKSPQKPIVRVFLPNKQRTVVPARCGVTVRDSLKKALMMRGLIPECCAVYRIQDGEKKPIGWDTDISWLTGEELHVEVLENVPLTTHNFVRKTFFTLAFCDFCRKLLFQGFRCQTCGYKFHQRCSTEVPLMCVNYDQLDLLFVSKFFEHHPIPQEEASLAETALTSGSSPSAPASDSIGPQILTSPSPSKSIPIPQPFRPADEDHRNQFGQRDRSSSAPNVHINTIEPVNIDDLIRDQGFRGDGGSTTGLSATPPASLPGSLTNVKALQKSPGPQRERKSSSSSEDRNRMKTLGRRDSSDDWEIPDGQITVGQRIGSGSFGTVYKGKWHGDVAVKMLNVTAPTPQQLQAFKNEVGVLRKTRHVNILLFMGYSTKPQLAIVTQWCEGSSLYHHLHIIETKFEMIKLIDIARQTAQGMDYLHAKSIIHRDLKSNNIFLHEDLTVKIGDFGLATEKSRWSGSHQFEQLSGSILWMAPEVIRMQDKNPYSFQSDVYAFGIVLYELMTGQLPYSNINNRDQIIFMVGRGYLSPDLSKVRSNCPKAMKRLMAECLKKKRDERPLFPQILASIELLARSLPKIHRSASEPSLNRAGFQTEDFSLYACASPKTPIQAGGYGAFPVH
Sequence of B-Raf (P15056 whole entry): as the sequence (P15056 whole entry V600E) above, with E600V counted along it
Sequence of c-Raf-1 (P04049 whole entry Y340D/Y341D, form open): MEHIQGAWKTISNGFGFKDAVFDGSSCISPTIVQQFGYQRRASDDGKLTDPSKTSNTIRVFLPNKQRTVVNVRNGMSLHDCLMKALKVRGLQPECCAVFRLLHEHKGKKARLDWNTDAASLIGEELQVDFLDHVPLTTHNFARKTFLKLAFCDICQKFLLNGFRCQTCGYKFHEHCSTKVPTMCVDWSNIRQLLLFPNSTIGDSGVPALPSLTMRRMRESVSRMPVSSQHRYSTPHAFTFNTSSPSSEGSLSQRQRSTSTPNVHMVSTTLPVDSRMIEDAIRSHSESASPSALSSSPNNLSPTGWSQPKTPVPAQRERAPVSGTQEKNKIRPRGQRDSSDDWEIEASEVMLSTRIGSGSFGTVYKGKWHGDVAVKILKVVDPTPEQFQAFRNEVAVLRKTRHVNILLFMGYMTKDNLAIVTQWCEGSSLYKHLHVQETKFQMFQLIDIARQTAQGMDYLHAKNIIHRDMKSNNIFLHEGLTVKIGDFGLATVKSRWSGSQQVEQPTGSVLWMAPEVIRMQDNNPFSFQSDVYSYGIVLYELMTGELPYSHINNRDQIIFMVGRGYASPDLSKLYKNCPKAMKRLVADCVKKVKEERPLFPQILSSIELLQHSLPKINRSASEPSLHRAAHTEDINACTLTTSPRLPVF

**Q.** `CCCS(=O)(=O)Nc1ccc(F)c(C(=O)c2c[nH]c3ncc(-c4cnc(-n5ccccc5=O)cn4)cc23)c1F` [P-1600, Propane-1-sulfonic acid (2,4-difluoro-3-{5-[5-(2-oxo-2H-pyridin-1-yl)-pyrazin-2-yl]-1H-pyrrolo[2,3-b]pyridine-3-carbonyl}-phenyl)-amide] was tested. Which IC50 (B-Raf) did it give?
**A.** The IC50 was less than 0.1 µM.

**Q.** And the IC50 (B-Raf V600E)?
**A.** The IC50 was less than 0.1 µM.

**Q.** And the IC50 (c-Raf-1)?
**A.** The IC50 was less than 0.1 µM.

**Q.** What about the IC50 [1] of the same compound?
**A.** The IC50 was greater than 1 µM.

**Q.** What about the IC50 [2] of the same compound?
**A.** Its IC50 is less than 1 µM.
